Measurements published in patent publication US11446287B2, “Compounds and methods for EP300 or CBP modulation and indications therefor” (Opna Immuno-Oncology SA, priority 2019, dated 2022).

Biological target: T1, Recombinant human BRD4 containing dual bromodomains (BRD4-BD12 (1-477)) (Homo sapiens, UniProt O60885)
T1 construct: Recombinant human BRD4 containing dual bromodomains (BRD4-BD12 (1-477)); made in house; host or cells: E. coli BL21-CodonPlus (DE3), modified pET vector
Test: BRD4 Alphascreen binding assay
Procedure, shortened: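 AlphaScreen proximity between Ni-chelate-bound BRD4-BD12 (1-477) and streptavidin-captured H4 K5/K8/K12/K16-acetyl peptide measured after 1 h room-temperature compound incubation and 30 min with 7.5 μg/ml beads. Buffer: 50 mM HEPES pH 7.5, 50 mM NaCl, 0.01% BSA, 0.01% Triton X-100; data plate-normalized and four-parameter fit for IC50.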

SMILES | IC50 [µM]
Cc1noc(C)c1-c1cnc2c(c1)c(-c1ccc(C(=O)O)cc1OCC(F)F)cn2C(C1CC1)C1CC1 [P-0338, 4-(1-(dicyclopropylmethyl)-5-(3,5-dimethylisoxazol-4-yl)-1H-pyrrolo[2,3-b]pyridin-3-yl)-3-(2,2-difluoroethoxy)benzoic acid] | 8 to 1000
COc1cc(C(=O)O)ncc1-c1cn(C(C2CC2)C2CC2)c2ncc(-c3c(C)noc3C)cc12 [P-0339, 5-(1-(dicyclopropylmethyl)-5-(3,5-dimethylisoxazol-4-yl)-1H-pyrrolo[2,3-b]pyridin-3-yl)-4-methoxypicolinic acid] | 1 to 8
Cc1noc(C)c1-c1cnc2c(c1)c(-c1c(Cl)cc(C(=O)O)cc1OCC(F)F)cn2C(C1CC1)C1CC1 [P-0340, 3-chloro-4-(1-(dicyclopropylmethyl)-5-(3,5-dimethylisoxazol-4-yl)-1H-pyrrolo[2,3-b]pyridin-3-yl)-5-(2,2-difluoroethoxy)benzoic acid] | 8 to 1000
Cc1noc(C)c1-c1cnc2c(c1)c(-c1ccc(C(=O)O)cc1OC1CCC1)cn2C1CCOCC1 [P-0341, 3-cyclobutoxy-4-(5-(3,5-dimethylisoxazol-4-yl)-1-(tetrahydro-2H-pyran-4-yl)-1H-pyrrolo[2,3-b]pyridin-3-yl)benzoic acid] | 8 to 1000
Cc1noc(C)c1-c1cnc2c(c1)c(-c1ccc(C(=O)O)cc1OC(C)C)c(C)n2C(C1CC1)C1CC1 [P-0342, 4-(1-(dicyclopropylmethyl)-5-(3,5-dimethylisoxazol-4-yl)-2-methyl-1H-pyrrolo[2,3-b]pyridin-3-yl)-3-isopropoxybenzoic acid] | 8 to 1000
Cc1noc(C)c1-c1cnc2c(c1)c(-c1ccc(C(=O)O)cc1OC(F)(F)F)c(C)n2C(C1CC1)C1CC1 [P-0343, 4-(1-(dicyclopropylmethyl)-5-(3,5-dimethylisoxazol-4-yl)-2-methyl-1H-pyrrolo[2,3-b]pyridin-3-yl)-3-(trifluoromethoxy)benzoic acid] | 8 to 1000
Cc1noc(C)c1-c1ccc2c(c1)c(-c1ccc(C(=O)O)cc1OC(F)(F)F)cn2C(C1CC1)C1CC1 [P-0344, 4-(1-(dicyclopropylmethyl)-5-(3,5-dimethylisoxazol-4-yl)-1H-indol-3-yl)-3-(trifluoromethoxy)benzoic acid] | 8 to 1000
Cc1noc(C)c1-c1cnc2c(c1)c(-c1ccc(C(=O)O)cc1OC(F)(F)F)c(C)n2-c1ncccc1C#N [P-0345, 4-(1-(3-cyanopyridin-2-yl)-5-(3,5-dimethylisoxazol-4-yl)-2-methyl-1H-pyrrolo[2,3-b]pyridin-3-yl)-3-(trifluoromethoxy)benzoic acid] | 8 to 1000
Cc1noc(C)c1-c1cnc2c(c1)c(-c1c(Cl)cc(C(=O)O)cc1OC(F)(F)F)cn2[C@H]1CCOC1 [P-0346, (S)-3-chloro-4-(5-(3,5-dimethylisoxazol-4-yl)-1-(tetrahydrofuran-3-yl)-1H-pyrrolo[2,3-b]pyridin-3-yl)-5-(trifluoromethoxy)benzoic acid] | 8 to 1000
Cc1noc(C)c1-c1cnc2c(c1)c(-c1ccc(C(=O)O)cc1OC1CCC1)cn2-c1cnc(N2CCC2)nc1 [P-0347, 4-(1-(2-(azetidin-1-yl)pyrimidin-5-yl)-5-(3,5-dimethylisoxazol-4-yl)-1H-pyrrolo[2,3-b]pyridin-3-yl)-3-cyclobutoxybenzoic acid] | 8 to 1000
Cc1noc(C)c1-c1cnc2c(c1)c(-c1c(F)cc(C(=O)O)cc1OCC(F)F)cn2-c1cnc(N2CCC2)nc1 [P-0348, 4-(1-(2-(azetidin-1-yl)pyrimidin-5-yl)-5-(3,5-dimethylisoxazol-4-yl)-1H-pyrrolo[2,3-b]pyridin-3-yl)-3-(2,2-difluoroethoxy)-5-fluorobenzoic acid] | 8 to 1000
Cc1nn(C(F)F)cc1-n1cc(-c2ccc(C(=O)O)cc2OCC(F)F)c2cc(-c3c(C)noc3C)cnc21 [P-0349, 3-(2,2-difluoroethoxy)-4-(1-(1-(difluoromethyl)-3-methyl-1H-pyrazol-4-yl)-5-(3,5-dimethylisoxazol-4-yl)-1H-pyrrolo[2,3-b]pyridin-3-yl)benzoic acid] | 8 to 1000
Cc1noc(C)c1-c1cnc2c(c1)c(-c1ccc(C(=O)O)cc1OC1CCC1)cn2[C@H]1CCOC1 [P-0350, (S)-3-cyclobutoxy-4-(5-(3,5-dimethylisoxazol-4-yl)-1-(tetrahydrofuran-3-yl)-1H-pyrrolo[2,3-b]pyridin-3-yl)benzoic acid] | 8 to 1000
Cc1nn(C(F)F)cc1-n1cc(-c2ccc(C(=O)O)cc2OC2CCC2)c2cc(-c3c(C)noc3C)cnc21 [P-0351, 3-cyclobutoxy-4-(1-(1-(difluoromethyl)-3-methyl-1H-pyrazol-4-yl)-5-(3,5-dimethylisoxazol-4-yl)-1H-pyrrolo[2,3-b]pyridin-3-yl)benzoic acid] | 8 to 1000
Cc1noc(C)c1-c1cnc2c(c1)c(-c1c(Cl)cc(C(=O)O)cc1OCC(F)F)cn2-c1cnn(C(F)F)c1C [P-0352, 3-chloro-5-(2,2-difluoroethoxy)-4-(1-(1-(difluoromethyl)-5-methyl-1H-pyrazol-4-yl)-5-(3,5-dimethylisoxazol-4-yl)-1H-pyrrolo[2,3-b]pyridin-3-yl)benzoic acid] | 1 to 8
Cc1noc(C)c1-c1cnc2c(c1)c(-c1ccc(C(=O)O)cc1OC1CCC1)cn2-c1cnn(C(F)F)c1C [P-0353, 3-cyclobutoxy-4-(1-(1-(difluoromethyl)-5-methyl-1H-pyrazol-4-yl)-5-(3,5-dimethylisoxazol-4-yl)-1H-pyrrolo[2,3-b]pyridin-3-yl)benzoic acid] | 8 to 1000
Cc1noc(C)c1-c1cnc2c(c1)c(-c1ccc(C(=O)O)cc1OC(C)C)cn2-c1cnn(C(F)F)c1C [P-0354, 4-(1-(1-(difluoromethyl)-5-methyl-1H-pyrazol-4-yl)-5-(3,5-dimethylisoxazol-4-yl)-1H-pyrrolo[2,3-b]pyridin-3-yl)-3-isopropoxybenzoic acid] | 8 to 1000
Cc1noc(C)c1-c1cnc2c(c1)c(-c1c(Cl)cc(C(=O)O)cc1OC(F)(F)F)cn2C1CCOCC1 [P-0355, 3-chloro-4-(5-(3,5-dimethylisoxazol-4-yl)-1-(tetrahydro-2H-pyran-4-yl)-1H-pyrrolo[2,3-b]pyridin-3-yl)-5-(trifluoromethoxy)benzoic acid] | 1 to 8
Cc1noc(C)c1-c1cnc2c(c1)c(-c1c(Cl)cc(C(=O)O)cc1OC1CCC1)cn2C(C1CC1)C1CC1 [P-0356, 3-chloro-5-cyclobutoxy-4-(1-(dicyclopropylmethyl)-5-(3,5-dimethylisoxazol-4-yl)-1H-pyrrolo[2,3-b]pyridin-3-yl)benzoic acid] | 1 to 8
Cc1noc(C)c1-c1cnc2c(c1)c(-c1ccc(C(=O)O)cc1OC(C)C)cn2C1CCOCC1 [P-0357, 4-(5-(3,5-dimethylisoxazol-4-yl)-1-(tetrahydro-2H-pyran-4-yl)-1H-pyrrolo[2,3-b]pyridin-3-yl)-3-isopropoxybenzoic acid] | 8 to 1000
Cc1noc(C)c1-c1cnc2c(c1)c(-c1c(Cl)cc(C(=O)O)cc1OC1CCC1)cn2C1CCOCC1 [P-0358, 3-chloro-5-cyclobutoxy-4-(5-(3,5-dimethylisoxazol-4-yl)-1-(tetrahydro-2H-pyran-4-yl)-1H-pyrrolo[2,3-b]pyridin-3-yl)benzoic acid] | 1 to 8
Cc1noc(C)c1-c1cnc2c(c1)c(-c1c(Cl)cc(C(=O)O)cc1OCC(F)F)cn2C1CCOCC1 [P-0359, 3-chloro-5-(2,2-difluoroethoxy)-4-(5-(3,5-dimethylisoxazol-4-yl)-1-(tetrahydro-2H-pyran-4-yl)-1H-pyrrolo[2,3-b]pyridin-3-yl)benzoic acid] | 8 to 1000
CCOc1cc(C(=O)O)c(F)cc1-c1cn([C@H]2CCOC2)c2ncc(-c3c(C)noc3C)cc12 [P-0360, (S)-4-(5-(3,5-dimethylisoxazol-4-yl)-1-(tetrahydrofuran-3-yl)-1H-pyrrolo[2,3-b]pyridin-3-yl)-5-ethoxy-2-fluorobenzoic acid] | 8 to 1000
Cc1noc(C)c1-c1cnc2c(c1)c(-c1c(Cl)cc(C(=O)O)cc1OC1CCC1)cn2[C@H]1CCOC1 [P-0361, (S)-3-chloro-5-cyclobutoxy-4-(5-(3,5-dimethylisoxazol-4-yl)-1-(tetrahydrofuran-3-yl)-1H-pyrrolo[2,3-b]pyridin-3-yl)benzoic acid] | 8 to 1000
COc1cc(C(=O)O)ncc1-c1cn(C2CCOCC2)c2ncc(-c3c(C)noc3C)cc12 [P-0362, 5-(5-(3,5-dimethylisoxazol-4-yl)-1-(tetrahydro-2H-pyran-4-yl)-1H-pyrrolo[2,3-b]pyridin-3-yl)-4-methoxypicolinic acid] | 0.0001 to 1
Cc1noc(C)c1-c1cnc2c(c1)c(-c1c(Cl)cc(C(=O)O)cc1OC1CC1)cn2C(C1CC1)C1CC1 [P-0363, 3-chloro-5-cyclopropoxy-4-(1-(dicyclopropylmethyl)-5-(3,5-dimethylisoxazol-4-yl)-1H-pyrrolo[2,3-b]pyridin-3-yl)benzoic acid] | 1 to 8
Cc1noc(C)c1-c1cnc2c(c1)c(-c1ccc(C(=O)O)cc1OC(F)(F)F)cn2CC1(C#N)CCC1 [P-0364, 4-(1-((1-cyanocyclobutyl)methyl)-5-(3,5-dimethylisoxazol-4-yl)-1H-pyrrolo[2,3-b]pyridin-3-yl)-3-(trifluoromethoxy)benzoic acid] | 1 to 8
Cc1nn(CC(C)(C)O)cc1-n1cc(-c2ccc(C(=O)O)cc2OC(F)(F)F)c2cc(-c3c(C)noc3C)cnc21 [P-0365, 4-(5-(3,5-dimethylisoxazol-4-yl)-1-(1-(2-hydroxy-2-methylpropyl)-3-methyl-1H-pyrazol-4-yl)-1H-pyrrolo[2,3-b]pyridin-3-yl)-3-(trifluoromethoxy)benzoic acid] | 1 to 8
Cc1nn(CC(=O)N(C)C)cc1-n1cc(-c2ccc(C(=O)O)cc2OC(F)(F)F)c2cc(-c3c(C)noc3C)cnc21 [P-0366, 4-(1-(1-(2-(dimethylamino)-2-oxoethyl)-3-methyl-1H-pyrazol-4-yl)-5-(3,5-dimethylisoxazol-4-yl)-1H-pyrrolo[2,3-b]pyridin-3-yl)-3-(trifluoromethoxy)benzoic acid] | 8 to 1000
